Assay results as given in ChEMBL document CHEMBL5214883, “Comprehensive review for anticancer hybridized multitargeting HDAC inhibitors” (Eur J Med Chem, 2021).

Assays:
[1] = target: T1, Histone deacetylase 1 (Homo sapiens, UniProt Q13547); test: Inhibition of HDAC1 (unknown origin)
[2] = target: Bcr/Abl fusion protein (Homo sapiens, UniProt P00519); test: Inhibition of Bcr-Abl (unknown origin); format: protein assay
[3] = system: K562; test: Cytotoxicity against human K562 cells
[4] = system: DU-145; test: Cytotoxicity against human DU-145 cells
[5] = system: HCT-116; test: In vivo antitumor activity against human HCT-116 cells xenografted in BALB/c nude mouse assessed as tumor growth inhibition at 150 mg/kg, po relative to control; format: functional; conditions: read-out: TGI
[6] = target: Histone deacetylase; test: Inhibition of HDAC (unknown origin); format: protein assay, Homo sapiens
[7] = target: T1, Histone deacetylase 1; test: Inhibition of HDAC1 in human HeLa cell nuclear extract using Bos-Lys(acetyl)-AMC as substrate preincubated for 5 mins followed by substrate addition incubated for 30 mins; format: cell-free
[8] = target: Epidermal growth factor receptor (Homo sapiens, UniProt P00533); test: Inhibition of EGFR wildtype (unknown origin) incubated for 40 mins in presence of ATP
[9] = system: Epidermal growth factor receptor (Homo sapiens), P00533 [UNDEFINED MUTATION]; test: Inhibition of EGFR T790M (unknown origin) at 1 uM incubated for 40 mins in presence of ATP relative to control
[10] = target: T1, Histone deacetylase 1; test: Inhibition of human recombinant HDAC1 using Ac-Lys-Tyr-Lys (epsilon-acetyl)-AMC as substrate incubated for 24 hrs by EnVision multilabel plate reader method
[11] = system: A549; test: Antiproliferative activity against human A549 cells incubated for 72 hrs by CCK-8 assay; format: functional, cell-based; conditions: A549, 72 h
[12] = system: HepG2; test: Antiproliferative activity against human HepG2 cells incubated for 72 hrs by CCK-8 assay; format: functional, cell-based; conditions: HepG2, 72 h
[13] = system: MCF7; test: Antiproliferative activity against human MCF7 cells incubated for 72 hrs by CCK-8 assay; format: functional, cell-based; conditions: MCF7, 72 h
[14] = system: PC-3; test: Antiproliferative activity against human PC-3 cells incubated for 72 hrs by CCK-8 assay; format: functional, cell-based; conditions: PC-3, 72 h
[15] = system: HeLa; test: Antiproliferative activity against human HeLa cells incubated for 72 hrs by CCK-8 assay; format: functional, cell-based
[16] = target: Tubulin; test: Inhibition of tubulin polymerization (unknown origin) incubated for 15 mins in presence of GTP by fluorescence-based tubulin polymerization assay kit; format: protein-complex assay, Homo sapiens
[17] = target: T2, Protein deacetylase HDAC6 (Homo sapiens, UniProt Q9UBN7); test: Inhibition of HDAC6 (unknown origin)
T2 sequence (Q9UBN7 whole entry): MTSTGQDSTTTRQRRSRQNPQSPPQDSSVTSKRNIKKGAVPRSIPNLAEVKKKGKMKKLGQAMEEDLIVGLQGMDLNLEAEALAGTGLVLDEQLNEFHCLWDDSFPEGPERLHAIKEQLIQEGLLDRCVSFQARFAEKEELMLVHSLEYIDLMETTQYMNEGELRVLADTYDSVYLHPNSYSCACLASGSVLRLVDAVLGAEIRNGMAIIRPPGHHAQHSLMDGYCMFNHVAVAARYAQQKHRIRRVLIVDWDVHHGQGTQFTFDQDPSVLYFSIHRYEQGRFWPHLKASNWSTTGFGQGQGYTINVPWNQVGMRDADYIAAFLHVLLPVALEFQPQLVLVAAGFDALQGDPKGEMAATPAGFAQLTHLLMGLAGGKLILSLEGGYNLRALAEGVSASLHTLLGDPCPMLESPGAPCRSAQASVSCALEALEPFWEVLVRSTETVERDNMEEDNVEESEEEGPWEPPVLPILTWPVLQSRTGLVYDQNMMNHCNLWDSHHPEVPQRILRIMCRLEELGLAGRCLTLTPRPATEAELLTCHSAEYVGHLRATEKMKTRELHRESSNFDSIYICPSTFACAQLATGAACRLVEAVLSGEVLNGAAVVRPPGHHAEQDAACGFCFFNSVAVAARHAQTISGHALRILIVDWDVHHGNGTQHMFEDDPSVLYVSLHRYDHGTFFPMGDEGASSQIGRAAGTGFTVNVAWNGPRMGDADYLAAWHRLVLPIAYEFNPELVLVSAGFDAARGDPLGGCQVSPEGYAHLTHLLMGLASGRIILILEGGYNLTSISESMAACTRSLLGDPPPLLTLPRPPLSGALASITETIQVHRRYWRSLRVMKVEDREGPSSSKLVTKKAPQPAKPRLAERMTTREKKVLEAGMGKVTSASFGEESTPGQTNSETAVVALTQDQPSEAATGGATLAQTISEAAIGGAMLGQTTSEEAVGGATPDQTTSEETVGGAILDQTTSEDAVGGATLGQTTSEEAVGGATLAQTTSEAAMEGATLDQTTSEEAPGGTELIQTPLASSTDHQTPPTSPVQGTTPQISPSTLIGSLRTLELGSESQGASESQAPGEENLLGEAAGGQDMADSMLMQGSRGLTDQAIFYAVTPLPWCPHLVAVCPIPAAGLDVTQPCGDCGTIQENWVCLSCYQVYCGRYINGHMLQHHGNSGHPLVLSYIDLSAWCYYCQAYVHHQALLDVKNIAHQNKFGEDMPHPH

[18] = target: Histone deacetylase 8 (Homo sapiens, UniProt Q9BY41); test: Inhibition of HDAC8 (unknown origin)
[19] = target: Histone deacetylase; test: Inhibition of HDAC (unknown origin) by H4 Hybrid Multi-Mode Microplate Reade; format: protein assay, Homo sapiens
[20] = target: T2, Protein deacetylase HDAC6; test: Inhibition of HDAC6 (unknown origin) using fluorogenic substrate incubated for 30 mins by fluorometric drug discovery assay kit method
[21] = system: PC-3; test: Antiproliferative activity against human PC-3 cells incubated for 48 hrs by Sulforhodamine B staining method; format: functional, cell-based; conditions: PC-3, 48 h
[22] = system: DU-145; test: Antiproliferative activity against human DU-145 cells incubated for 48 hrs by Sulforhodamine B staining method; format: functional, cell-based; conditions: DU-145, 48 h
[23] = target: cGMP-specific 3',5'-cyclic phosphodiesterase (Homo sapiens, UniProt O76074); test: Inhibition of PDE5 (unknown origin) incubated for 1.5 hrs by IMAP fluorescence polarization phosphodiesterase evaluation assay
[24] = target: T1, Histone deacetylase 1; test: Inhibition of HDAC1 (unknown origin) relative to control; conditions: concentration not given here
[25] = target: Receptor tyrosine-protein kinase erbB-2 (Homo sapiens, UniProt P04626); test: Inhibition of HER2 (unknown origin) at 10 ug/ml using synthetic biotinylated peptide as substrate by Wallac Victor II 1420 microplate reader method relative to control; conditions: dose 10.0 µg/ml
[26] = system: Panel NCI-60 (60 carcinoma cell lines); test: Cytotoxicity against human Panel NCI-60 (60 carcinoma cell lines); format: functional, cell-based
[27] = target: Inhibitor of nuclear factor kappa-B kinase subunit alpha (Homo sapiens) (UniProt O15111); test: Inhibition of IKKa (unknown origin) at 1 uM relative to control
[28] = target: Ribosomal protein S6 kinase alpha-5 (Homo sapiens) (UniProt O75582); test: Inhibition of MSK1 (unknown origin) at 1 uM relative to control
[29] = target: T2, Protein deacetylase HDAC6; test: Inhibition of HDAC-6 (unknown origin) expressed in Escherichia coli BL21 (DE3) in HeLa nuclear extract using Boc-Lys(TFA)-AMC as substrate preincubated for 5 mins followed by substrate addition measured after 30 mins […]

T1 sequence (Q13547 whole entry, the tested form may be a part): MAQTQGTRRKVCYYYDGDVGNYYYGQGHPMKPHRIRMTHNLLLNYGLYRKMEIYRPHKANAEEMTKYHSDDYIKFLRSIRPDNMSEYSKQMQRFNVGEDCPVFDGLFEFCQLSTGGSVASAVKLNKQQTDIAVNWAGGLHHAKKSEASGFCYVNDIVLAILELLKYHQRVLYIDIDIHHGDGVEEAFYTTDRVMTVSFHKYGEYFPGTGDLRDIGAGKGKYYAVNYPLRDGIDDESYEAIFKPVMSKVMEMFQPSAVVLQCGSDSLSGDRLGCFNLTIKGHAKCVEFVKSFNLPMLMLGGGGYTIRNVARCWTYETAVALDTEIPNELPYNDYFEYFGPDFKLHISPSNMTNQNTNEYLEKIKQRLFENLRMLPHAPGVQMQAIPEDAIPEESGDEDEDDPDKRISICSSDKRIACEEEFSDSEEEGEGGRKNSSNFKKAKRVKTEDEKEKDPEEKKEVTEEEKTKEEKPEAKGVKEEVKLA
Chain of Bcr/Abl fusion protein (P00519 whole entry, the tested form may be a part): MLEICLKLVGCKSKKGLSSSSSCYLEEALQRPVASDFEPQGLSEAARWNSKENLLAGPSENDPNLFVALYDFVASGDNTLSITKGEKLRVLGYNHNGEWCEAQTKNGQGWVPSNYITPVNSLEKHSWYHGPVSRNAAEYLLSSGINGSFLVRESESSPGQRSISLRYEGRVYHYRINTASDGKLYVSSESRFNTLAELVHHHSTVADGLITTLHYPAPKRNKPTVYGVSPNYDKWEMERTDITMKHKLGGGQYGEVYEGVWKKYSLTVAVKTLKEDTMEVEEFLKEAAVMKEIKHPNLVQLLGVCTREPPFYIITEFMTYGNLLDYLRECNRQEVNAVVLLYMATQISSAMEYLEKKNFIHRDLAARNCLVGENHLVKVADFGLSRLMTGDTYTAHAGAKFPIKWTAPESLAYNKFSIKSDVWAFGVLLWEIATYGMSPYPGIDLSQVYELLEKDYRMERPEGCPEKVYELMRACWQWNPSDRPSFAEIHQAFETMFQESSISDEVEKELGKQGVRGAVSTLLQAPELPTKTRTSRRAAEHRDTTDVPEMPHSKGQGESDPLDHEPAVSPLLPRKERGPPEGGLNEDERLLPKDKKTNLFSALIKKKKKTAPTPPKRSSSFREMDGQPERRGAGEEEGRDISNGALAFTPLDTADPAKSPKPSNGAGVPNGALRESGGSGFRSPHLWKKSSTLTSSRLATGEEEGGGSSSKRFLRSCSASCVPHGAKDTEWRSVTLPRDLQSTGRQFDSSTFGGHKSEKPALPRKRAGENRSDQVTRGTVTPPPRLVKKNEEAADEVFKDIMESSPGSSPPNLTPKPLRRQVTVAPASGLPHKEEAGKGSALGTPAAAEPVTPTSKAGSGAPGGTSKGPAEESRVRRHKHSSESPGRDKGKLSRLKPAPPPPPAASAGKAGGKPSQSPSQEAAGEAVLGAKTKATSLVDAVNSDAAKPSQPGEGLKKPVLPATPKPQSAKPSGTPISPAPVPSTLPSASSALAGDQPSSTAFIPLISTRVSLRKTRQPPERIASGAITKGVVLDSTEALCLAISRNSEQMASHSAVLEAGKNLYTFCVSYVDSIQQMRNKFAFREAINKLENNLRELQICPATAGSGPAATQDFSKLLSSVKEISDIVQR
Chain of Bcr/Abl fusion protein (P11274 whole entry, further chain, the tested form may be a part): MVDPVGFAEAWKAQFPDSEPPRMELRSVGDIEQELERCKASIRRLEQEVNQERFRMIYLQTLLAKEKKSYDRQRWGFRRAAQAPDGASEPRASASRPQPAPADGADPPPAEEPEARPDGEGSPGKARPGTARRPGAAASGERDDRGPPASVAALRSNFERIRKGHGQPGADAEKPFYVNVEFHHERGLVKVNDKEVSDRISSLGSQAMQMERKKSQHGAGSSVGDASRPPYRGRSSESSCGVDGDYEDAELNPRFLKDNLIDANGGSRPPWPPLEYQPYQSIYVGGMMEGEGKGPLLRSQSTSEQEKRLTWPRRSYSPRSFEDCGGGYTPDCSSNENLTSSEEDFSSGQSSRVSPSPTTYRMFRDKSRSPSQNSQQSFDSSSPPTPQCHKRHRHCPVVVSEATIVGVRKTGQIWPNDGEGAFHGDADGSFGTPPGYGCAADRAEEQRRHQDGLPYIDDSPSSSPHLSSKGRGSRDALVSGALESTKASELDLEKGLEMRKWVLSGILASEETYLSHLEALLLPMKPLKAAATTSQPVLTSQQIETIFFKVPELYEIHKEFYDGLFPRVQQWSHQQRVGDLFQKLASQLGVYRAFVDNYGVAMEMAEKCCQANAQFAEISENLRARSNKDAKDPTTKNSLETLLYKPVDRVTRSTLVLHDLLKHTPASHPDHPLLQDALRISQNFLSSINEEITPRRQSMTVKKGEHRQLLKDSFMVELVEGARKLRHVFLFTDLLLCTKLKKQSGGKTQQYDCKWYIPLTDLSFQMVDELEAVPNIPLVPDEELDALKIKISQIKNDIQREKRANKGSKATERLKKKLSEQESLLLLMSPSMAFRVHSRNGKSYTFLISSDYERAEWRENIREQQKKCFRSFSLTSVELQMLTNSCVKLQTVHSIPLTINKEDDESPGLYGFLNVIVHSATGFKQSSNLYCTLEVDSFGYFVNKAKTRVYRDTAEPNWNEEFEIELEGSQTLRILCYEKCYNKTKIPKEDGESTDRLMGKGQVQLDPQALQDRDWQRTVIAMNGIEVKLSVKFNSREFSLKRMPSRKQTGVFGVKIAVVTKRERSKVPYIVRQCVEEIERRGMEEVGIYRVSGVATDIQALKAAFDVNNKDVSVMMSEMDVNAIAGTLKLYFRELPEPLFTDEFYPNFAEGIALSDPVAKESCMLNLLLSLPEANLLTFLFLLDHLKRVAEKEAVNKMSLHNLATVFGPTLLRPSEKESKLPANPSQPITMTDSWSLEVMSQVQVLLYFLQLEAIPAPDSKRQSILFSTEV
Chain of Inhibitor of nuclear factor kappa-B kinase subunit alpha (Homo sapiens) (O15111 whole entry): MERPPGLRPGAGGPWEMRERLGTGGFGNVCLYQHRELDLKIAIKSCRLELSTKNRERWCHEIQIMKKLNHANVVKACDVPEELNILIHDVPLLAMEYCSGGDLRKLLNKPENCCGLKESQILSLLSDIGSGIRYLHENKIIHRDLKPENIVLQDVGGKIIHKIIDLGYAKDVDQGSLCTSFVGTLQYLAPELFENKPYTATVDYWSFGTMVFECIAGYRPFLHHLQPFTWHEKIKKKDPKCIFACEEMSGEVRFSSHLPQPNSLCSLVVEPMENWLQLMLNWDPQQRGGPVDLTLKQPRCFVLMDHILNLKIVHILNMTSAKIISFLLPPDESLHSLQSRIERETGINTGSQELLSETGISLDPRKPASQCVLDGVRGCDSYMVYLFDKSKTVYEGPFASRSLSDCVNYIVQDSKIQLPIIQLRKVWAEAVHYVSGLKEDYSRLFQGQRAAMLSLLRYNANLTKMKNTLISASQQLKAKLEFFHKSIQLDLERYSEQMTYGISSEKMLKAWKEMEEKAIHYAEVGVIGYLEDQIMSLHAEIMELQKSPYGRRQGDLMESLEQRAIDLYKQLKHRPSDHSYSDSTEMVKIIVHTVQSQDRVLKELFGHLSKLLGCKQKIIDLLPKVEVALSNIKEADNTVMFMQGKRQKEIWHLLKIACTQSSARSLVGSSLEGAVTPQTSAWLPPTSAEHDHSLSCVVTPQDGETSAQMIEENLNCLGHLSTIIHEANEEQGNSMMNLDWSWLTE
Chain of Histone deacetylase 8 (Q9BY41 whole entry): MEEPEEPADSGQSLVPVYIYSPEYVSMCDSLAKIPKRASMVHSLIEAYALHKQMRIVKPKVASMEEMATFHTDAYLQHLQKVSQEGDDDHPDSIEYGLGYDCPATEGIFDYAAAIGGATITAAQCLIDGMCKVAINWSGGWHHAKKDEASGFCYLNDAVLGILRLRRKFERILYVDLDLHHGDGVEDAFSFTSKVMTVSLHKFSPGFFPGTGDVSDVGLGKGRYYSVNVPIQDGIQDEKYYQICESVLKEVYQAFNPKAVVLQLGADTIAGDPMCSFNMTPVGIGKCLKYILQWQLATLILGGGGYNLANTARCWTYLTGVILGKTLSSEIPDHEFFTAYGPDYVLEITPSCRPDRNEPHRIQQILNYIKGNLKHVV
Chain of Ribosomal protein S6 kinase alpha-5 (Homo sapiens) (O75582 whole entry, looked up): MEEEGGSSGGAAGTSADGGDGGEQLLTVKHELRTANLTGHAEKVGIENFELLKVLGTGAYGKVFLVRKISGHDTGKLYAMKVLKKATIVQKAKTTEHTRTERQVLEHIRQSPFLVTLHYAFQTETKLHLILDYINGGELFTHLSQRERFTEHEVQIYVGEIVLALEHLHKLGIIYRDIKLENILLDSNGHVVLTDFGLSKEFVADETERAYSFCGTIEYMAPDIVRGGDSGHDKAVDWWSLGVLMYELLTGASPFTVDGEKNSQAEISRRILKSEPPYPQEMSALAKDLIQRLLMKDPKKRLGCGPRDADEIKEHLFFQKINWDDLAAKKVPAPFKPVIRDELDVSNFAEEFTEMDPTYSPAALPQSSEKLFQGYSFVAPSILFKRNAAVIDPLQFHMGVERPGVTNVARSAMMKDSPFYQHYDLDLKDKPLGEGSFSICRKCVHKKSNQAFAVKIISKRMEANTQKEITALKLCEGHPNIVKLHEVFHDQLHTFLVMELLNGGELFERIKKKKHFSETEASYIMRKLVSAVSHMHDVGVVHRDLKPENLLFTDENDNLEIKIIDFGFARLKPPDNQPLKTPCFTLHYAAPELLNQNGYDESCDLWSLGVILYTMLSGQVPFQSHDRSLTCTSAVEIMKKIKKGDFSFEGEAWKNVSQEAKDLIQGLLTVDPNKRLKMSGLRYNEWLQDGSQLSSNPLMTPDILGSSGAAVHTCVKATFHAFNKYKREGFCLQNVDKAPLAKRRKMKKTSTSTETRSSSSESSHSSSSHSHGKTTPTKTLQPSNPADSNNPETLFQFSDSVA

In the case of `CCN1CCN(c2cc(Nc3ncc(C(=O)Nc4ccc(F)cc4N)s3)nc(C)n2)CC1`, the IC50 [1] is reported as 810 nM, the IC50 [2] is reported as 17800 nM and the IC50 [3] is reported as 2620 nM. The IC50 [4] was 600 nM.

`CN1c2ccccc2C(=O)N2[C@H](C(=O)Nc3ccc(C(=O)Nc4ccccc4N)cc3)Cc3c([nH]c4ccccc34)[C@@H]12` showed an inhibition in vivo at 150 mg/kg [5] of 75.2%.

`CNC(=O)c1cc(Oc2ccc(NC(=O)c3ccccc3)cc2)ccc1N` showed an IC50 [6] of 6190 nM.

In the case of `COc1cc(NC(=O)CCCCCCC(=O)NO)ccc1Nc1nccc(-c2cn(C)c3ccccc23)n1`, the IC50 [7] is reported as 85 nM, the IC50 [8] is reported as 5900 nM and the inhibition [9] is reported as 15%.

In the case of `COc1cc2ncnc(Nc3cccc(/C=C/C(=O)NO)c3)c2cc1OCCCN1CCOCC1`, the IC50 [10] is reported as 150 nM.

`CNC(=O)c1cc(Oc2ccc(NC(=O)c3ccc(Cl)c(C(F)(F)F)c3)cc2)ccc1N` showed an IC50 [6] of 1170 nM.

In the case of `CCN1CCN(c2cc(Nc3ncc(C(=O)Nc4ccccc4N)s3)nc(C)n2)CC1`, the IC50 [1] is reported as 150 nM, the IC50 [2] is reported as 21200 nM and the IC50 [3] is reported as 2560 nM. The IC50 [4] was 5790 nM.

In the case of `C[C@H]1COc2c(N3CCN(C)CC3)c(F)cc3c(=O)c(C(=O)O)cn1c23` [LEVOFLOXACIN], the IC50 [11] is reported as over 70000 nM, the IC50 [12] is reported as over 70000 nM and the IC50 [13] is reported as over 70000 nM. It also gave an IC50 [14] of over 70000 nM, an IC50 [15] of over 70000 nM and an IC50 [16] of 11300 nM.

`NC(=O)c1cc(Oc2ccc(NC(=O)c3ccc(Cl)c(C(F)(F)F)c3)cc2)ccc1N` gave an IC50 [6] of 2790 nM.

`CN(CCOc1no[n+]([O-])c1S(=O)(=O)c1ccccc1)C(=O)c1ccc(/C=C/C(=O)NO)cc1` showed an IC50 [17] of 160 nM and an IC50 [18] of 260 nM.

`Cc1nc(Nc2ncc(C(=O)Nc3c(C)cccc3Cl)s2)cc(N2CCN(CCO)CC2)n1` [DASATINIB] gave an IC50 [3] of 7440 nM and an IC50 [4] of 2430 nM.

In the case of `O=C(CCCCCN1CC(=O)N2[C@@H](CC3c4ccccc4NC3[C@@H]2c2ccc(Br)cc2)C1=O)NO` (some centres not stated), the IC50 [19] is reported as 61.2 nM.

`CN(C)c1nc2c(Br)c(Br)c(Br)c(Br)c2n1CCCCCC(=O)NO` was tested, and the IC50 [20] was 860 nM.

Molecule `CNC(=O)c1cc(Oc2ccc(NC(=O)c3cccc(N)c3)cc2)ccc1N` has an IC50 [6] of 1030 nM.

For `CN(C)CCNC(=O)c1cccc2cc3ccccc3nc12`, the IC50 [21] was 1860 nM and the IC50 [22] was 2000 nM.

Work on `Nc1ccccc1NC(=O)c1ccc(CNC(=O)OCc2cccnc2)cc1` [ENTINOSTAT] yielded an IC50 [3] of 21300 nM and an IC50 [4] of 3750 nM.

`O=C(CCCCCCN1CC(=O)N2[C@H](CC3c4ccccc4NC3[C@H]2c2ccc(Br)cc2)C1=O)NO` (some centres not stated) showed an IC50 [23] of 46.2 nM and an IC50 [19] of 14.2 nM.

For `O=C(CCn1cc(CCn2nc3c(Br)c(Br)c(Br)c(Br)c3n2)nn1)NO`, the inhibition [24] was 97%.

With `COCCOc1cc2ncnc(Nc3ccc(/C=C/C(=O)NO)cc3)c2cc1OCCOC` the inhibition [25] was 64.2%.

`Cn1c(CCCCCCC(=O)NO)nc2cc(N(CCCl)CCCl)ccc21` [TINOSTAMUSTINE] was tested, and the IC50 [1] was 10 nM and the IC50 [26] was 2200 nM.

For `CCN1CCN(Cc2ccc(Nc3ncc(F)c(-c4cc(F)c5nc(C)n(C(C)C)c5c4)n3)nc2)CC1`, the inhibition [27] was 80% and the inhibition [28] was 1%.

Work on `O=C(CCCCCNC(=O)c1cccc2cc3ccccc3nc12)NO` yielded an IC50 [29] of 2.3 nM.
